Data reported in patent US11058775B2, “Insulin dimer-incretin conjugates” (Merck Sharp & Dohme Corp., priority 2016, dated 2021).

Target: T1, human GCGR (Homo sapiens, UniProt P47871)
T1 construct: expressed in transfected cells; grown under Blasticidin and Hygromycin selection
Assay: cAMP activity assay, cells expressing human GCGR
Assay type: cell-based
Details: ratio of hGCGR EC50 to hGLP1R EC50, Table 7
Method: Activity of the peptides and the conjugates at the Glucagon receptor (GCGR) and GLP-1 receptor (GLP1R) may be measured in a cAMP activity assay as follows.
Peptides are dissolved in 100% DMSO and serially diluted to generate 10 point titrations. The peptide solutions are then transferred into 384-well assay plates (150 nL/well). Assay ready frozen cells expressing human GIPR, GLP1R or human GCGR are suspended in growth media consisting of DMEM medium (GIBCO), 10% FBS (GIBCO), 1×NEAA(GIBCO), 1×P/S (GIBCO), 10 μg/mL Blasticidin (GIBCO) and 200 μg/mL Hygromycin (GIBCO). […] The cell suspensions (15 μL) are then added to the assay plates containing the peptide solutions (30,000 cells/well for human GCGR; 10,000 cells/well for human GLP1R and 15,000 cells/well for human GIPR). The cells are incubated for one hour at room temperature in the dark.
Production of cAMP may be determined using HitHunter™ cAMPXS kits (DiscoverX) following the manufacturer's protocol. The plates are incubated for overnight at room temperature in the dark. Luminescence may be measured using an EnVision Multilabel plate reader (Perkin Elmer). Native GIP, GLP-1 and Glucagon (Bachem) may be used as control peptides. EC50 values may be calculated using uses a 4 parameter logistic fit based on the Levenberg-Marquardt algorithm.

T1 sequence (P47871 26-477): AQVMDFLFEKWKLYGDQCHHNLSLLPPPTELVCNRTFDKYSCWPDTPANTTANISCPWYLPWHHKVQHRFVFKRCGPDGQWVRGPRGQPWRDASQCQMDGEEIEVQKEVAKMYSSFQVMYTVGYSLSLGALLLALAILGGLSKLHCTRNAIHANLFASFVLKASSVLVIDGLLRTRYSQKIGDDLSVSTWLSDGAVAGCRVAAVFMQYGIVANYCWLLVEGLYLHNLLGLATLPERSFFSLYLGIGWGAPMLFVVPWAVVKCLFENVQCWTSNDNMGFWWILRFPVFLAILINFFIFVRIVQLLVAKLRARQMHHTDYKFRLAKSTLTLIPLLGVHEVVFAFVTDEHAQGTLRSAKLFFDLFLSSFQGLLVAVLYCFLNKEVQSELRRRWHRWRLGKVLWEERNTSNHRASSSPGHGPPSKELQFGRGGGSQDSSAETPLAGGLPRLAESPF

`CC(C)C[C@H](NC(=O)[C@H](Cc1ccc(O)cc1)NC(=O)[C@H](CCCCN)NC(=O)[C@H](CO)NC(=O)[C@H](CCCCN)NC(=O)[C@H](CC(=O)O)NC(=O)[C@H](CO)NC(=O)[C@@H](NC(=O)[C@H](Cc1ccccc1)NC(=O)[C@@H](NC(=O)CNC(=O)[C@H](CCC(N)=O)NC(=O)[C@@H](CO)NC(=O)[C@@H](N)Cc1c[nH]cn1)[C@@H](C)O)[C@@H](C)O)C(=O)N[C@@H](CC(=O)O)C(=O)N[C@@H](CCC(=O)O)C(=O)N[C@@H](CCCNC(=N)N)C(=O)N[C@@H](C)C(=O)N[C@@H](C)C(=O)N[C@@H](CCC(N)=O)C(=O)N[C@@H](CC(=O)O)C(=O)N[C@@H](Cc1ccccc1)C(=O)N[C@H](C(=O)N[C@@H](CCCCN=[N+]=[N-])C(=O)N[C@@H](Cc1c[nH]c2ccccc12)C(=O)N[C@@H](CC(C)C)C(=O)N[C@@H](CC(C)C)C(=O)N[C@@H](CC(=O)O)C(=O)N[C@H](C(N)=O)[C@@H](C)O)C(C)C` [PEP88] gave a GCGR/GLP1R ratio of 0.97.
